Source: patent US20110232180A1, “Method of applying calcium magnesium acetate to affect growth of unwanted broadleaf weeds in lawn grasses” (priority 2010, published 2011)

How the values were obtained:
broadleaf weeds = settings: granular substance applied to the leaves of the weeds
Text: A novel unknown use of calcium magnesium acetate is as an effective eliminator of certain broadleaf weeds which invade lawn grasses. When applying the granular substance to the leaves of the weeds, it can produce desired results, very quickly, much faster then many previously known toxic compositions. This method can work in as little as two days.
(§1) These are not mandatory steps, it simply helps reduce fall off of the grains on the leaves. Alternatively, without the binder and size reduction, the grains could rest by simple placement on the leaves of the weed.

[1] = test system: environment, ducks and fish; settings: cited from earlier work
violet weeds = assay: calcium magnesium acetate grains or triclopyr liquid applied to violet weeds in lawn grasses; format: in vivo
Text: as §1

testosterone in men = settings: by-product of triclopyr; cited from earlier work

Compound | effect on lawn grasses around or near the violet weeds (common lawn grasses; applied by the method (grains isolated on the target weed, limited amount)) | effect on lawn grasses (common lawn grasses; extreme over applications of the granular product) | time in which the method works on broadleaf weeds (broadleaf weeds) | toxicity to the environment [1] | time in which the grains eliminate / control violet weeds (violet weeds; grains applied to leaves of violet weeds in lawn) | effect on testosterone in men (testosterone in men) | treatments needed to affect violet weeds (violet weeds; liquid form applied once a month to lawns with violet weeds)
calcium magnesium acetate | little or no adverse affect | did affect common lawn grasses | two | non-toxic to the environment | two |  | 
tricloropyridine |  |  |  |  |  | lower testosterone in men | 
O=C(O)COc1nc(Cl)c(Cl)cc1Cl [triclopyr, reference compound] |  |  |  | slightly toxic to the environment, ducks and fish |  |  | several monthly treatments just to diminish part of the plant
